# Assay results taken from patent US12667584B2, “Adenosine analog and its use in regulating the circadian clock” (NATIONAL INSTITUTE OF BIOLOGICAL SCIENCES, BEIJING, priority 2017, dated 2026).
# Experiments:
# [1] = test system: Per2-Luc reporter U2OS cells (D15); assay: Circadian phase shift cell assay in D15 cells, 384 well plate, Tecan, with or without pentostatin; assay type: cell-based, human
# Per2:luc U2OS cells = assay: Real-time monitoring of circadian oscillation in lumicycle, Per2:luc U2OS cells; assay type: cell-based, human
# Experimental: Cell culture, drug treatment and Real-Time Monitoring of Circadian Oscillations: Per2-Luc reporter U2OS cells (D15) and Bmal1-Luc reporter U2OS cells (C26) cells were kept in DMEM medium (Gibco), supplemented with 10% FBS (Gibco) and 1% penicillin streptomycin mixture (Gibco). For Circadian Oscillation monitored with lumicycle (Actimetrics), cells were seeded at the density of 10^6 per 3.5 cm dish (Z688851-30EA). The medium was changed into XM medium (PH7.2, 10 mM HEPES, 350 mg/I bicarbonate, 1×B27, 100 IU/ml penicillin, 100 μg/ml streptomycin, 10 μg/ml gentamycin, and 100 μM d-Luciferin) 2 days after cell seeding. 3.5 cm dish was then sealed with high-vacuum grease (Dow Corning) and microscope cover glass, and transferred into lumicycle which was placed in an incubator (37° C.). For Drug treatment, 3.5 cm dish was taken out from lumicycle quickly at indicated time. After chemical was added into the medium, the dish was sealed again and put back into lumicycle. For Circadian Oscillation monitored with Tecan (Perkinelmer), cells were seeded at the density of […] per well for 384-well plate (CLS3610-48EA). 2 days later, the medium was changed into premixed XM medium with different chemicals with or without pentostatin (5 μg/ml). The plate was then sealing with sealing film (Sangon Biotech) and put into Tecan. Data from cells were collected in the Tecan luminometer at 37° C. for 5˜7 days.
# The inventors conducted a chemical screen using the human osteosarcoma U2OS cell line so as to discover small molecules that modify the phase of the intracellular clock in mammals. In the primary screen, the inventors used two reporter lines of U2OS harboring a luciferase gene under control of either Per2 or Bmal1 promoter (named Per2-dLuc or Bmal1-dLuc cells), and set the threshold for at least 6 h phase-changes with no apparent amplitude-reduction in both cell lines. […] An institutional pilot chemical library consisting of approximately 10,000 small molecules was applied in this study. […] The inventors set to allow a free-run of the clock before administration of the compound over the course in order to eliminate the possibility that this phase-changing phenomenon was due to a combinative phenotype of medium-change plus the compound effect.
# Circadian clock is a transcriptional based feedback loop, however different clock genes contain different cis-element and may show different response to the same stimulation. […] Since the close similar structure with adenosine and potential function of inhibiting transcription by preventing mRNA elongation, we tested whether adenosine and other deoxynucleoside could shift circadian phase. […] Therefore we further tested whether cordycepin utilize adenosine transporter to enter cell or utilize adenosine deaminase to degrade.
# One prominent character of zeitgeiber is phase dependent function. Therefore, we further tested whether cordycepin also has the character.
smiles,measurement,setting,value
"Nc1ncnc2c1ncn2[C@@H]1O[C@H](CO)C[C@H]1O [Cordycepin, 3′-deoxy-adenosine]",concentration of eliciting 12 h phase shift (potency),[1]; pentostatin containing medium (5 μg/ml),0.2 µM
same,concentration of eliciting 12 h phase shift (potency),"[1]; pentostatin containing medium (5 μg/ml), listed as cordycepin",0.18 µM
same,concentration of eliciting 12 h phase shift (potency),[1]; without pentostatin,25 µM
same,phase shift,Per2:luc U2OS cells; 100 μM applied at CT10,12 h
same,phase shift,Per2:luc U2OS cells; 100 μM applied at CT 20,~0 h
same,Per2-dLuc phase shift,"Per2:luc U2OS cells; applied at Per2 peak, 100 μM",12 h
same,Per2-dLuc phase shift,Per2:luc U2OS cells; applied at Per2 trough,0 h
same,amplitude of Per2-dLuc,Per2:luc U2OS cells; applied at Per2 trough,increase the amplitude
